The source of these data is US10906929B2, “Phosphoramidate nucleoside derivatives as anticancer agents” (NuCana plc, priority 2016, dated 2021).

Assay [1] has as its system HL-60. In words: In vitro cytotoxicity, MTS assay. It counts as cell-based. The note with it: Homo sapiens, 72 h, read-out: Inhibitory concentration (IC50) HL-60. On the procedure:
(§1) Cladribine phosphoramidate derivatives were evaluated against six leukaemic cell lines (KG1, U937, K562, NB4R2, NB4 and HL-60) in vitro. Inhibitory concentration (IC50) at which 50% of the cells were no longer viable (calculated using MTS assay) was determined. Cells were treated with Cladribine and its 3′-phosphoramidate derivatives at concentrations between 100 μM and 0.02 μM by serial dilutions and incubated for 72 h at 37° C., 5% CO2 in a final volume of 90 μL. Twenty microliters of MTS reagent (Promega UK Ltd, Southampton, Hants) was added to the tumour cell cultures and reaction incubated for a further 4 h at 37° C., 5% CO2. The absorbance of the reaction after this time was read by spectrophotometry at 490 nm and the percentage of viable cells calculated relative to untreated control cells in the same assay.

In assay [2] the test system is NB4. Nature of the assay: In vitro cytotoxicity, MTS assay. Format: cell-based. The note with it: Homo sapiens, NB-4, 72 h, read-out: Inhibitory concentration (IC50) NB4. On the procedure:
as §1

Assay [3] concerns HEL92.1.7 Erythroleukaemia. Nature of the assay: In vitro viability assay, CellTiterGlo. It counts as cell-based. On the procedure:
(§2) In vitro viability assay was performed to assess the effects of compounds on cell viability in selected cell lines over 72 h using the CellTiterGlo (CTG, Promega-G7573) assay. The tests were performed in duplicates with treatment of compounds at 9 points, 3.16 folds titration in 96 well plates over ˜72 h. The compound starting concentrations were […]. Cell viability assay using CellTiterGlo in 96-well plate were performed. Compounds were dissolved to 40 mM with thawed 100% DMSO. Compounds were serially diluted at 3.16-fold in thawed DMSO, and warmed to 37° C. before being dissolved in media (2 μl+200 μl). After compounds were dissolved in media, media containing compounds were warmed to 37° C. in incubator and then compounds in media were added to cell plates (50 μl+50 μl) in duplicates. The compounds' final concentrations were from 198 μM to 19.9 nM. Solubility of all compounds was checked and recorded again, then the plates were transferred to CO2 tissue culture incubator immediately and incubated for 3 days. DMSO final concentration is 0.5%.

Assay [4] deals with HL-60 Promyelocytic leukaemia. Nature of the assay: In vitro viability assay, CellTiterGlo. Format: cell-based. On the procedure: as §2
The test system of assay [5] is KG-1 Acute myelogenous leukaemia. Nature of the assay: In vitro viability assay, CellTiterGlo. It counts as cell-based. On the procedure: as §2
Assay [6] has as its system RL Non-Hodgkin's lymphoma. In words: In vitro viability assay, CellTiterGlo. It counts as cell-based. The note with it: 72 h. On the procedure:
as §2

The test system of assay [7] is Z-138 Mantle cell lymphoma. In words: In vitro viability assay, CellTiterGlo. It counts as cell-based. On the procedure: as §2
The subject of assay [8] is MCF-7 Mammary epithelial adenocarcinoma. Nature of the assay: In vitro viability assay, CellTiterGlo. Format: cell-based, human. On the procedure:
as §2

For assay [9], the system named is L1210. Nature of the assay: Cytostatic activity, cell counting (Coulter counter). Format: cell-based. The note with it: Mus musculus, L1210, 48 h, read-out: IC50 L1210. The source says: (§3) Tumor cell cultures were infected with M. hyorhinis (ATCC 17981) and after two or more passages (to avoid bias by the initial inoculum) successful infection was confirmed using the MycoAlert™ mycoplasma detection kit (Lonza, Basel, Switzerland). Although this assay is only semi-quantitative, a maximal infection was observed 3 to 4 days after subcultivation of the mycoplasma-exposed cells. Chronically infected tumor cell lines are further referred to as Cell line.Hyor. All tumor cell cultures were maintained in Dulbecco's modified Eagle's medium (DMEM) (Invitrogen) supplemented with 10% fetal bovine serum (Biochrom AG, Berlin, Germany), 10 mm HEPES, and 1 mm sodium pyruvate (Invitrogen). Cells were grown at 37° C. in a humidified incubator with a gas phase containing 5% CO2.
(§4) The cytostatic activity of the test compounds was examined in mycoplasma-infected and uninfected cancer cell lines. When assaying the effect of M. hyorhinis infection, monolayer MCF7 and MCF7.Hyor cells were seeded in 48-well microtiter plates (Nunc™, Roskilde, Denmark) at 10,000 cells/well (Corning Inc., Corning, N.Y.) […]. After 24 h, the cells were exposed to different concentrations of test compound and allowed to proliferate for 72 h (to ensure sufficient cell proliferation and mycoplasma growth) after which the cells were trypsinized and counted using a Coulter counter (Analis, Suarlée, Belgium). Suspension cells (L1210, L1210.Hyor, FM3A, and FM3A.Hyor) were seeded in 96-well microtiter plates (Nunc) at 60,000 cells/well in the presence of different concentrations of test compound. The cells were allowed to proliferate for 48 h and then counted using a Coulter counter. The 50% inhibitory concentration (IC50) was defined as the compound concentration required to reduce cell proliferation by 50%.

Assay [10] has as its system L1210 cells infected with Mycoplasma hyorhinis (HYOR). Nature of the assay: Cytostatic activity in mycoplasma-infected cells. It counts as cell-based, mouse.
Source text: as §3, §4

As for `C[C@H](NP(=O)(Oc1cccc2ccccc12)OC1C[C@H](n2cnc3c(N)nc(Cl)nc32)O[C@@H]1CO)C(=O)OCC(C)(C)C` (stereo partly drawn) [Compound 6, 2-Chloro-2′-deoxyadenosine-3′-[1-naphthyl-(2,2-dimethylpropoxy-L-alaninyl)]phosphate], the IC50 in assay [1] amounted to 0.3 µM; in assay [2], 1 µM; in [9], 1 µM; in assay [10] (Mus musculus, L1210, 48 h, read-out: IC50 L1210/HYOR) it was 4 µM. Besides, the “Top Inhibition (%)” value is reported as 98.6% in [3] (HEL92.1.7, CellTiterGlo, 72 h); 96% in assay [4] (HL-60, CellTiterGlo, 72 h); 98.6% in [5] (KG-1, CellTiterGlo, 72 h); 98.6% in assay [6] (CellTiterGlo); 101% in assay [7] (Z-138, CellTiterGlo, 72 h); 102% in assay [8] (MCF-7, CellTiterGlo, 72 h). For the same compound, the EC50 is 0.07 µM in assay [3] (Homo sapiens, HEL 92.1.7, 72 h, read-out: EC50 (μM) Ab); 0.23 µM in assay [4] (Homo sapiens, HL-60, 72 h, read-out: EC50 (μM) Ab); 1.2 µM in assay [5] (Homo sapiens, KG-1, 72 h, read-out: EC50 (μM) Ab); 0.29 µM in assay [6] (Homo sapiens, read-out: EC50 (μM) Ab); 1.5 µM in assay [7] (Homo sapiens, Z-138, 72 h, read-out: EC50 (μM) Ab); 6.8 µM in assay [8] (Homo sapiens, MCF7, 72 h, read-out: EC50 (μM) Ab). In assay [10] (L1210/HYOR versus L1210), the Loss of potency is given as 4-fold.
